Reference: ChEMBL document CHEMBL1123826, “Nitrogen bridgehead compounds. 66. Bronchodilator nitrogen bridgehead compounds with a pyrimidinone moiety” (J Med Chem, 1987)

Key:
[1] = system: Cavia porcellus; experiment: Compound was tested for Bronchodilator activity against histamine-induced spasm in guinea pig by Konzett-Rossler test; dose administered by intraduodenal route.; format: functional; conditions: read-out: ID50 (the source's name)
[2] = system: Cavia porcellus; experiment: Compound was tested for Bronchodilator activity against serotonin-induced spasm in guinea pig by Konzett-Rossler test; dose administered by intraduodenal route.; format: functional; conditions: read-out: ID50 (the source's name)
[3] = system: Cavia porcellus; experiment: Compound was tested for Bronchodilator activity against acetylcholine-induced spasm in guinea pig by Konzett-Rossler test; dose administered by intraduodenal route.; format: functional; conditions: read-out: ID50 (the source's name)
[4] = system: Cavia porcellus; experiment: Compound was tested for Bronchodilator activity against acetylcholine-induced spasm in guinea pig by Konzett-Rossler tes; dose administered by intraduodenal route.; format: functional; conditions: read-out: ID50 (the source's name)
[5] = system: Cavia porcellus; experiment: Compound was tested for Bronchodilator activity against serotonin-induced spasm in guinea pig by Konzett-Rossler test; dose administered by intraduodenal route; format: functional; conditions: read-out: ID50 (the source's name)
[6] = organism: Cavia porcellus; experiment: Bronchodilator activity against acetylcholine-induced spasm in guinea pig; format: functional; conditions: read-out: ID50 (the source's name)
[7] = organism: Cavia porcellus; experiment: Bronchodilator activity against histamine-induced spasm in guinea pig; format: functional; conditions: read-out: ID50 (the source's name)
[8] = organism: Cavia porcellus; experiment: Bronchodilator activity against serotonin-induced spasm in guinea pig; format: functional; conditions: read-out: ID50 (the source's name)
[9] = organism: Homo sapiens; experiment: compound was tested for Bronchodilator activity against isolated human bronchus contracted by carbachol; format: functional
[10] = Relative potency is ratio of IC50 of theophylline / IC50 was determined; format: functional
[11] = Relative potency calculated from ratio of IC50 of theophylline / IC50 was determined; format: functional
[12] = organism: Cavia porcellus; experiment: […] activity was evaluated by inhibition of BaCl2 induced spasm in isolated guinea pig ileum; format: functional
[13] = organism: Cavia porcellus; experiment: […] activity was evaluated by inhibition of acetylcholine induced spasm in isolated guinea pig ileum; format: functional
[14] = organism: Cavia porcellus; experiment: […] activity was evaluated by inhibition of histamine induced spasm in isolated guinea pig ileum; format: functional
[15] = organism: Cavia porcellus; experiment: […] activity was evaluated by inhibition of nicotinate induced spasm in isolated guinea pig ileum; format: functional
[16] = organism: Cavia porcellus; experiment: Compound was tested for Anticholenergic activity on isolated guinea pig trachea contracted by carbachol; format: functional; conditions: for Kb: read-out: pA2 (converted)
[17] = organism: Homo sapiens; experiment: Compound was tested for Bronchodilator activity against isolated human bronchus contracted by carbachol; format: functional
[18] = Ratio of pA2 to pD2 was determined on isolated guinea pig trachea; format: functional
[19] = organism: Cavia porcellus; experiment: […] activity was evaluated by inhibition of serotonin induced spasm in isolated guinea pig ileum; format: functional
[20] = organism: Cavia porcellus; experiment: Compound was tested for Bronchodilator activity against acetylcholine-induced spasm in guinea pig by Konzett-Rossler test; format: organism-based; conditions: in vivo
[21] = Homo sapiens, Bronchus, read-out: IC50

| SMILES | ED50 [1] [µmol/kg] | ED50 [2] [µmol/kg] | ED50 [3] [µmol/kg] | ED50 [6] [µmol/kg] | ED50 [7] [µmol/kg] | ED50 [8] [µmol/kg] | Relative potency [10] | other results |
| --- | --- | --- | --- | --- | --- | --- | --- | --- |
| Cc1cccc2c(=O)n3c(nc12)CCCCC3 | > 32 | > 32 | > 32 | – | – | – | – | – |
| CC1CCCCc2nc3c(c(=O)n21)CCCC3 (stereo not drawn) | > 320 | > 320 | – | – | – | – | – | ED50 [4]: > 320 µmol/kg |
| CCOC(=O)c1ccc2c(=O)n3c(nc2c1)CCCCC3 | 32 | – | 24.5 | – | – | – | – | ED50 [5]: 10 µmol/kg |
| COC(=O)c1ccc2nc3n(c(=O)c2c1)CCCCC3 | 32 | 32 | > 32 | – | – | – | – | – |
| Cc1cccn2c(=O)c3c(nc12)CCCC3 | – | – | – | 15.7 | 7 | 15.6 | 2.26 | IC50 [9, 21]: 66.6 µM |
| O=c1c2c(nc3n1CCCCC3)CCCC2 | – | – | – | – | – | – | – | Relative potency [11]: 28 |
| CC1CCn2c(nc3c(c2=O)CCC3)C1 (stereo not drawn) | – | – | – | 56.4 | 18.9 | 22.5 | 1.07 | IC50 [9]: 141 uM l-1 |
| CCc1c(C)nc2n(c1=O)CCC(C)C2 (stereo not drawn) | – | – | – | 28.2 | 23.2 | 18.4 | 2.02 | IC50 [9, 21]: 74.6 µM |
| CC1CCCCn2c1nc1c(c2=O)CCCC1 (stereo not drawn) | > 320 | > 320 | > 320 | – | – | – | – | – |
| Cl.O=c1c2c(nc3n1CCCCC3)CCCC2 | – | – | – | – | – | – | – | IC50 [12]: 123 uM l-1; IC50 [13]: 5.01 µM; IC50 [14]: > 100 µM; IC50 [15]: 49.5 µM; pD2 [16]: 5.39; Kb [16]: 1910 nM; IC50 [17]: 5.4 µM; Ratio [18]: 1.06; IC50 [19]: 752 uM l-1 |
| O=c1nc2n(c3c1CCCCC3)CCC2 | – | – | – | – | > 32 | > 32 | – | ID50 [20]: > 32 µM/kg |
| CCc1c(C)nc2cccc(C)n2c1=O | – | – | – | 25.6 | 10.2 | 9.6 | 2.1 | IC50 [17, 21]: 71.8 µM |
| O=c1c2c(nc3n1CCCCC3)CCC2 | – | – | – | – | – | – | 9.93 | IC50 [12]: 113 uM l-1; IC50 [13]: 2.53 µM; IC50 [14]: > 100 µM; IC50 [15]: 75 µM; pD2 [16]: 5.37; Kb [16]: 229 nM; IC50 [17]: 15.2 µM; Ratio [18]: 1.23; IC50 [19]: 112 uM l-1 |
